Where two headings read alike, the source gives them in different places.
Columns and labels:
[1] = system: PBMCs from control subjects without AMD
Procedure: (§1) Accordingly, peripheral blood mononuclear cells of AMD patients were tested to determine whether they would manifest the same type of responses to various synthetic peptides as blood cells from uveitis patients did in an earlier study. See deSmet et al. (2001) Investigative Ophthalmology & Visual Science 42(13):3233-38.
(§2) The cell preparation and assay procedures used in these experiments were essentially as described in DeSmet et al. 2001. In brief, mononuclear lymphocytes were separated on isolymph gradient (Gallard-Schlesinger, Carle Place, N.Y.) from heparinized blood shortly after the sample was obtained. Cells were resuspended in RMPI 1640 with HEPES (Gibco, Grand Island, N.Y.), supplemented with glutamine (2 mM), Penicillin (100 U/ml), streptomycin (100 μg/ml), and 10% commercial heat-inactivated human AB serum (Biocell Laboratories, Carson, Calif.). These cells were immediately placed in culture at a density of 5×10^5 cells/well in the presence of a test peptide at a concentration of 20 μg/ml (or no peptide control), in flat-bottomed, 96-well plates (Costar, Cambridge, Mass.). All assays were plated in triplicate. Peptides were tested simultaneously. For control of immune reactivity, purified protein derivative (PPD; Parke-Davis, Morris Plains, N.J.) and purified phytohemagglutinin (PHA; Murex Diagnostics, Dartford, UK) were also tested. For the last 12 hours before harvesting at day 5, each well was pulsed with [3H]thymidine (2 Ci/mmol, 0.5 μCi per 10 μl/well; New England Nuclear, Boston, Mass.).

[2] = system: peripheral blood mononuclear cells (PBMCs) from AMD patients; conditions: for immunostimulatory activity on PBMCs: peptide 20 μg/ml
Procedure: as §1, §2

[3] = system: blood cells from uveitis patients; conditions: previously found (Wildner and Thurau 1994; Thurau et al. 1997); cited from earlier work
[4] = AMD patients with large drusen (late stage)
[5] = patients with wet AMD (advanced AMD with CNV), day 5
[6] = early stage AMD patients with small drusen

Row | Substance | immunostimulatory activity on PBMCs [2, 4] | immunostimulatory activity on PBMCs [2, 5] | immunostimulatory in uveitis patients [3] | immunostimulatory activity on PBMCs [2, 6] | also measured
1 | GEPIPVTVDVTNNTEKTVKK | – | – | – | – | response from responder T-cells ([1]; healthy individuals): does not elicit a response; response from responder T-cells ([2]; AMD patients, FIG. 1): elicits a response
2 | FLGEL TSSEV ATEV [PDS-Ag, reference compound] | varying levels of responses | elicit immunoreactive responses | immunostimulatory | – | –
3 | ALNED LSSWT AADT [Peptide B27PD, reference compound] | varying levels of responses | elicit immunoreactive responses | immunostimulatory | – | –
4 | VTVDVTNNTEKTVKK [Peptide 23] | – | – | – | – | immunostimulatory activity on PBMCs ([1]; control subjects without AMD, peptide 20 μg/ml): little if any stimulation; frequency of induced immunostimulatory response ([2]; AMD patients with large drusen, FIG. 3, comparison of the three agents): more frequently induced an immunostimulatory response than PDS-Ag or B27PD
5 | DTNLA SSTII KEGID [Peptide 31] | higher average reactivity than Peptide 23 | – | – | most reactive | –
6 | LPLLA NNRER RGIAL [Peptide 29] | higher average reactivity than Peptide 23 | – | – | most reactive | –
